Data on five compounds can be found in patent US6281169A, “Aqueous suspensions of low solubility and low stability water additives” (BioLab Services, Inc., priority 1999, dated 2001).

Structures are written as SMILES. Read-outs that look alike come from different tables or passages of the source.

The subject of one data set is E. coli (ATCC #11229). The experiment in a line: Biocidal efficacy, AOAC Official Method 965.13, gram-negative bacteria. The format is cell-based. The method, then: (§1) The biocidal efficacy of dissolved BCDMH was compared to sodium hypochlorite using AOAC Official Method 965.13 (1995 Edition)--Disinfectant (Water) for Swimming Pools against the gram-negative bacteria E. coli (ATCC #11229) and the gram-positive bacteria Strep. faecalis (ATCC #6569). The desired nominal biocide dosage (0, 0.1, 0.3, 0.6 or 0.9 mg/l total halogen expressed as chlorine) was established by dilution from freshly prepared (filtered) standardized stock solutions of either BCDMH Powder or NaOCl into phosphate buffered water (approximate pH of 7.5 as described in the method). An inoculum was standardized to yield 2×10^8 organisms per ml. One ml of the standardized inoculum was mixed into 199 ml of phosphate buffered water containing the desired dosage of biocide. One-ml aliquots were removed at specific times (30, 60, 120 and 180 seconds after inoculum addition) and added, with mixing, into separate tubes containing 9 ml of thiosulfate solution to neutralize the oxidizing halogen. Five 1 ml aliquots of from each neutralization tube were then added and mixed into five separate tubes each containing 9 ml of subculture broth. After 48 hours of incubation, these were examined to determine growth or no growth in the subculture medium. […]

In data set [1] the test system is Strep. faecalis (ATCC #6569). The experiment in a line: Biocidal efficacy, AOAC Official Method 965.13, gram-positive bacteria. Format: cell-based. The method, then: as §1
Another data set has as its system bacteria. The data set is described as follows: Biocidal efficacy comparison, both bacteria (in words). The note with it: compared with NaOCl, predissolved BCDMH or other Examples. The format is cell-based, E. coli; Strep. faecalis. The method, then:
The biocidal efficacy of dissolved BCDMH was compared to sodium hypochlorite using AOAC Official Method 965.13 (1995 Edition)--Disinfectant (Water) for Swimming Pools against the gram-negative bacteria E. coli (ATCC #11229) and the gram-positive bacteria Strep. faecalis (ATCC #6569). The desired nominal biocide dosage (0, 0.1, 0.3, 0.6 or 0.9 mg/l total halogen expressed as chlorine) was established by dilution from freshly prepared (filtered) standardized stock solutions of either BCDMH Powder or NaOCl into phosphate buffered water (approximate pH of 7.5 as described in the method). An inoculum was standardized to yield 2×10^8 organisms per ml. One ml of the standardized inoculum was mixed into 199 ml of phosphate buffered water containing the desired dosage of biocide. One-ml aliquots were removed at specific times (30, 60, 120 and 180 seconds after inoculum addition) and added, with mixing, into separate tubes containing 9 ml of thiosulfate solution to neutralize the oxidizing halogen. Five 1 ml aliquots of from each neutralization tube were then added and mixed into five separate tubes each containing 9 ml of subculture broth. After 48 hours of incubation, these were examined to determine growth or no growth in the subculture medium.
The efficacy of this preparation was tested as described in Example 1 except that no stock solution of the preparation was made. […]

The conditions of data set [2]: cited from earlier work.
The conditions of data set [3]: cited from earlier work; for hydrolytic stability (in words): background.
The conditions of data set [4]: background; cited from earlier work.
[5] abbreviates: 0.1 ppm total halogen as Cl2, 30 sec.
Setting [6] is: 0.1 ppm total halogen as Cl2, 60 sec.
[7] abbreviates: 0.1 ppm total halogen as Cl2, 120 sec.
Setting [8] is: 0.1 ppm total halogen as Cl2, 180 sec.
[9] abbreviates: 0.3 ppm total halogen as Cl2, 30 sec.
Setting [10] is: 0.3 ppm total halogen as Cl2, 60 sec.
Where [11] appears, read: 0.3 ppm total halogen as Cl2, 120 sec.
Where [12] appears, read: 0.3 ppm total halogen as Cl2, 180 sec.
[13] abbreviates: 0.6 ppm total halogen as Cl2, 30 sec.
The mark [14] stands for this setting: 0.6 ppm total halogen as Cl2, 60 sec.
Where [15] appears, read: 0.6 ppm total halogen as Cl2, 120 sec.
Where [16] appears, read: 0.6 ppm total halogen as Cl2, 180 sec.
Where [17] appears, read: 0.9 ppm total halogen as Cl2, 30 sec.
Setting [18] is: 0.9 ppm total halogen as Cl2, 60 sec.
[19] abbreviates: 0.9 ppm total halogen as Cl2, 120 sec.
Setting [20] is: 0.9 ppm total halogen as Cl2, 180 sec.

For `CC1(C)C(=O)N(Cl)C(=O)N1Br` [BCDMH, bromochlorodimethylhydantoin], the “Number of Tubes Exhibiting Growth” value with E. coli (ATCC #11229) (setting [5]), with E. coli (ATCC #11229) (setting [6]), with E. coli (ATCC #11229) (setting [7]), with E. coli (ATCC #11229) (setting [8]), with E. coli (ATCC #11229) (setting [9]) and with E. coli (ATCC #11229) (setting [10]) was 5 Tubes (Out of 5) in each case. Further, the “Number of Tubes Exhibiting Growth” value is 5 Tubes (Out of 5) in the data set with E. coli (ATCC #11229) (setting [11]); 5 Tubes (Out of 5) in the data set on E. coli (ATCC #11229) (setting [12]); 0 Tubes (Out of 5) in the data set on E. coli (ATCC #11229) (setting [13]); 0 Tubes (Out of 5) in the data set on E. coli (ATCC #11229) (setting [14]); 0 Tubes (Out of 5) in the data set on E. coli (ATCC #11229) (setting [15]); 0 Tubes (Out of 5) in the data set on E. coli (ATCC #11229) (setting [16]). Besides, the “Number of Tubes Exhibiting Growth” value in the data set on E. coli (ATCC #11229) (setting [17]) is recorded as 0 Tubes (Out of 5); with E. coli (ATCC #11229) (setting [18]), 0 Tubes (Out of 5); in the data set on E. coli (ATCC #11229) (setting [19]), 0 Tubes (Out of 5); in the data set on E. coli (ATCC #11229) (setting [20]), 0 Tubes (Out of 5); in data set [1] (setting [5]), 5 Tubes (Out of 5); in data set [1] (setting [6]) it was 5 Tubes (Out of 5). For the same compound, the “Number of Tubes Exhibiting Growth” value is on record as 5 Tubes (Out of 5) in data set [1] (setting [7]); 5 Tubes (Out of 5) in data set [1] (setting [8]); 5 Tubes (Out of 5) in data set [1] (setting [9]); 5 Tubes (Out of 5) in data set [1] (setting [10]); 4 Tubes (Out of 5) in data set [1] (setting [11]); 1 Tubes (Out of 5) in data set [1] (setting [12]). Also, the “Number of Tubes Exhibiting Growth” value in data set [1] (setting [13]), in data set [1] (setting [14]), in data set [1] (setting [15]), in data set [1] (setting [16]), in data set [1] (setting [17]) and in data set [1] (setting [18]) was 0 Tubes (Out of 5) in each case. For the same compound, the “Number of Tubes Exhibiting Growth” value in data set [1] (setting [19]) and in data set [1] (setting [20]) was 0 Tubes (Out of 5) in each case. In addition, the “biocidal efficacy (in words)” value in the data set with bacteria is listed as “approximately the same”. The water solubility entry in data set [2] (20° C.) was “approximately 1,500 mg/liter”. Also, the “hydrolytic stability (in words)” value in data set [3] is reported as “not hydrolytically stable”. Besides, the “dissolving behaviour (in words)” value in data set [4] is “dissolves slowly”.

Take `O=c1[nH]c(=O)[nH]c(=O)[nH]1` [CYA, S-triazine-2,4,6-trione]: the solubility in water result in data set [2] (20° C.) was “approximately 2700 ppm”. For the same compound, the “dissolving behaviour (in words)” value in data set [4] is given as “fairly tough to dissolve”.

`[Na+].[O-]Cl` [NaOCl, sodium hypochlorite]: the “Number of Tubes Exhibiting Growth” value in the data set on E. coli (ATCC #11229) (setting [5]), with E. coli (ATCC #11229) (setting [6]), in the data set with E. coli (ATCC #11229) (setting [7]), in the data set with E. coli (ATCC #11229) (setting [8]), in the data set with E. coli (ATCC #11229) (setting [9]) and in the data set on E. coli (ATCC #11229) (setting [10]) was 5 Tubes (Out of 5) each time. The “Number of Tubes Exhibiting Growth” value with E. coli (ATCC #11229) (setting [11]) is 3 Tubes (Out of 5); in the data set on E. coli (ATCC #11229) (setting [12]), 1 Tubes (Out of 5); in the data set on E. coli (ATCC #11229) (setting [13]), 0 Tubes (Out of 5); in the data set on E. coli (ATCC #11229) (setting [14]), 0 Tubes (Out of 5); in the data set with E. coli (ATCC #11229) (setting [15]), 0 Tubes (Out of 5); in the data set with E. coli (ATCC #11229) (setting [16]) it was 0 Tubes (Out of 5). For the same compound, the “Number of Tubes Exhibiting Growth” value in data set [1] (setting [5]), in data set [1] (setting [6]), in data set [1] (setting [7]), in data set [1] (setting [8]), in data set [1] (setting [9]) and in data set [1] (setting [10]) was 5 Tubes (Out of 5) each time. In addition, the “Number of Tubes Exhibiting Growth” value in data set [1] (setting [11]) is reported as 5 Tubes (Out of 5); in data set [1] (setting [12]) it was 5 Tubes (Out of 5); in data set [1] (setting [13]) it was 0 Tubes (Out of 5); in data set [1] (setting [14]) it was 0 Tubes (Out of 5); in data set [1] (setting [15]), 0 Tubes (Out of 5); in data set [1] (setting [16]) it was 0 Tubes (Out of 5). In addition, the “biocidal efficacy (in words)” value in the data set with bacteria is “approximately the same”.

For `O=[N+]([O-])C(Br)=Cc1ccco1` [BNEF, 2-(2-bromo-2-nitro)-ethenyl furan], the solubility in water in data set [2] (25° C.) is 300 ppm. Also, the decomposition half-life is 2.33 h in data set [3] (pH 4, 50° C.); 1.77 h in data set [3] (pH 4, 60° C.); 0.817 h in data set [3] (pH 4, 70° C.); 71 h in data set [3] (pH 5, 25° C.); 37 h in data set [3] (pH 6, 25° C.); 6 h in data set [3] (pH 9, 25° C.).

As to `CCNc1nc(Cl)nc(NC(C)(C)C)n1` [terbuthylazine, 2-(tert-butylamino)-4-chloro-6-(ethylamino)-s-triazine], in data set [2] (25° C.), the solubility in water is reported as 11.5 ppm. In addition, the “hydrolytic stability (in words)” value in data set [3] is reported as “good hydrolytic stability”. The degradation half life in data set [3] (pH 5) is 73 days; in data set [3] (pH 9), 194 days.
